# Experimental data as given in patent publication US4374136A, “Pyrimidine derivatives” (May & Baker Limited, priority 1980, dated 1983).
# Where two headings read alike, the source gives them in different places.
# What was measured:
# [1] = test system: Plasmodium yoelii nigeriensis (strain N67); test: Antimalarial activity in mice, Plasmodium yoelii nigeriensis strain N67, oral daily for 4 days; assay type: in vivo; conditions: for ED50: Plasmodium yoelii, 504 h, read-out: CD50 (dose required to cure 50% of mice tested)
# Description: (§1) (a) The test compounds were tested in mice, against Plasmodium yoelii nigeriensis (strain N67), which is sensitive to pyrimethamine, and against a strain of Plasmodium yoelii nigeriensis [strain PR (derived from strain N67)] which is resistant to pyrimethamine, and also against pyrimethamine sensitive Plasmodium berghei (strain N30).
# (§2) In the experiments, the mice were each infected intraperitoneally with about 10^6 trophozoites. The test compound was administered orally daily for 4 days, beginning on the day of infection, and peripheral blood smears of the mice were observed 2 or 3 times per week for a total of 21 days. The numbers of mice cured were counted and the dose required to cure 50% of mice tested (CD50) was calculated.
# [2] = test system: Plasmodium yoelii nigeriensis (strain PR); test: Antimalarial activity in mice, pyrimethamine-resistant Plasmodium yoelii nigeriensis strain PR, oral daily for 4 days; assay type: in vivo; conditions: for Number of mice cured: PR; for ED50: Plasmodium yoelii, 504 h, strain PR, oral daily for 4 days from day of infection, 21 days observation, read-out: CD50 (dose required to cure 50% of mice tested)
# Description: as §1, §2
# [3] = test system: Plasmodium berghei (strain N30); test: Antimalarial activity in mice, Plasmodium berghei strain N30, oral daily for 4 days; assay type: in vivo; conditions: for Number of mice cured: 24 mice tested; for ED50: Plasmodium berghei, 504 h, read-out: CD50 (dose required to cure 50% of mice tested)
# Description: as §1, §2
# [4] = test system: Plasmodium yoelii nigeriensis (strain N67); test: Single oral dose antimalarial test in mice infected with strain N67; assay type: in vivo, Plasmodium yoelii nigeriensis; mice; conditions: for ED50: Plasmodium yoelii
# Description: (b) Mice were each infected intraperitoneally with about 10^6 trophozoites of strain N67 of Plasmodium yoelii nigeriensis. […] The numbers of mice cured were counted and the dose required to cure 50% of mice tested (CD50) was calculated.
# The results obtained are shown below in Table II, in comparison with a test using pyrimethamine against the same organism.
# [5] = Acute oral toxicity in mice; assay type: in vivo; conditions: mouse, in vivo; single oral dose, mice; read-out: LD50 (dose required to kill 50% of the mice tested)
# Description: (§3) Mice were treated with a single dose of the compound of formula III by the oral route, and were observed until all survivors had appeared to be healthy for 3 consecutive days. The LD50 dose (dose required to kill 50% of the mice tested) was then calculated.
# (§4) In a similar test on reference compound RCA an oral dose of 1000 mg/kg killed 2 out of 5 mice, giving an LD50 figure of […].
# mice = test: Acute oral toxicity in mice; assay type: in vivo; conditions: 5 mice tested
# Description: as §3, §4
# dogs = test: Toxicity in dogs, oral; assay type: in vivo
# malaria = test: Comparative activity against malaria (general statement); assay type: in vivo
# Excerpt: The properties of the compound of formula III are illustrated by the following laboratory tests.
# [6] = 504 h, one single oral dose 48 hours after infection, strain N67, read-out: CD50 (dose required to cure 50% of mice tested)
smiles,measurement,setting,value
"Cc1nc(N)nc(N)c1OCCCOc1ccc(Cl)cc1C1CCCCC1 [reference compound RCA, 2,4-diamino-6-methyl-5-[3-(4-chloro-2-cyclohexylphenoxy)propoxy]pyrimidine, reference compound]",Number of mice cured,"[1]; N67, daily dose 1 mg/kg, 32 mice tested",2 mice
same,Number of mice cured,"[1]; N67, daily dose 5 mg/kg, 32 mice tested",17 mice
same,Number of mice cured,"[1]; N67, daily dose 25 mg/kg, 31 mice tested",31 mice
same,ED50,[1]; po,5 mg/kg
same,Number of mice cured,"[2]; daily dose 10 mg/kg, 32 mice tested",0 mice
same,Number of mice cured,"[2]; daily dose 100 mg/kg, 32 mice tested",32 mice
same,ED50,[2],30 mg/kg
same,Number of mice cured,"[3]; N30, daily dose 1 mg/kg",0 mice
same,Number of mice cured,"[3]; N30, daily dose 10 mg/kg",5 mice
same,Number of mice cured,"[3]; N30, daily dose 100 mg/kg",24 mice
same,ED50,[3]; po,15 mg/kg
same,ED50,"[4]; po, 24 h, read-out: CD50",> 200 mg/kg
same,Number of mice cured,"[4]; oral dose 200 mg/kg, 24 hours after infection, 8 mice",2 mice
same,LD50,[5],~1000 mg/kg
same,Number of mice killed,mice; 1000 mg/kg oral,2 mice
same,Deaths in dogs,dogs; doses higher than 3 mg/kg/day,deaths occurring at higher doses
same,Clinical tolerance in dogs,dogs; even at doses of 3 mg/kg/day,clinically badly tolerated
same,Activity against malaria relative to any of the other 34 compounds of B.P. 1546937 tested,malaria; fold as active,at least 4 times
"Cc1nc(N)nc(N)c1OCCCOc1ccc(-c2ccc(Cl)cc2)cc1 [compound of formula III, 2,4-diamino-5-[3-{4-(4-chlorophenyl)phenoxy}propoxy]-6-methylpyrimidine]",Number of mice cured,"[1]; N67, daily dose 0.125 mg/kg, 32 mice tested",2 mice
same,Number of mice cured,"[1]; N67, daily dose 0.5 mg/kg, 32 mice tested",28 mice
same,Number of mice cured,"[1]; N67, daily dose 2.0 mg/kg, 31 mice tested",31 mice
same,ED50,"[1]; strain N67, oral daily for 4 days from day of infection, 21 days observation",0.3 mg/kg
same,Number of mice cured,"[2]; daily dose 0.2 mg/kg, 16 mice tested",0 mice
same,Number of mice cured,"[2]; daily dose 2.0 mg/kg, 16 mice tested",3 mice
same,Number of mice cured,"[2]; daily dose 20.0 mg/kg, 15 mice tested",15 mice
same,ED50,[2],3 mg/kg
same,Number of mice cured,"[3]; N30, daily dose 0.125 mg/kg",0 mice
same,Number of mice cured,"[3]; N30, daily dose 0.5 mg/kg",14 mice
same,Number of mice cured,"[3]; N30, daily dose 2.0 mg/kg",24 mice
same,ED50,"[3]; strain N30, oral daily for 4 days from day of infection, 21 days observation",0.45 mg/kg
same,ED50,[4]; [6],3.5 mg/kg
same,Number of mice cured,"[4]; single dose 0.2 mg/kg, 48 hours after infection, 8 mice tested",0 mice
same,Number of mice cured,"[4]; single dose 2.0 mg/kg, 48 hours after infection, 8 mice tested",1 mice
same,Number of mice cured,"[4]; single dose 20.0 mg/kg, 48 hours after infection, 8 mice tested",8 mice
same,LD50,[5],~1000 mg/kg
same,Number of mice killed,mice; 500 mg/kg oral,0 mice
same,Number of mice killed,mice; 1000 mg/kg oral,3 mice
same,Number of dogs in which clinically well-tolerated,"dogs; 15 mg/kg/day (highest dosage), 6 dogs",5 dogs
same,Clinical tolerance in dogs,"dogs; oral gelatin capsules, one month, 1, 3 and 9 mg/kg/day",clinically well-tolerated
same,Toxicity in dogs in comparison,dogs; versus reference compound RCA,much less toxic in dogs than reference compound RCA
same,Antimalarial activity in comparison,"malaria; sensitive and resistant strains of malaria, versus reference compound RCA",very much more active than reference compound RCA
"CCc1nc(N)nc(N)c1-c1ccc(Cl)cc1 [pyrimethamine, 2,4-diamino-5-(4-chlorophenyl)-6-ethylpyrimidine]",ED50,[4]; [6],> 50 mg/kg
same,Number of mice cured,"[4]; dose 5.0 mg/kg, 8 mice tested",0 mice
same,Number of mice cured,"[4]; dose 50.0 mg/kg (maximum tolerated dose), 8 mice tested",0 mice
